Assay results: paper PMC10905675, “INX-315, a Selective CDK2 Inhibitor, Induces Cell Cycle Arrest and Senescence in Solid Tumors” (Cancer Discovery, 2023)

Columns and labels:
Assay in all cases: SelectScreen LanthaScreen Binding
Details in all cases: INX-0315 at 100nM
ABL1 M351T = biological target: T1, ABL1 M351T (Homo sapiens, UniProt P00519, M351T)
T1 construct: purchased Thermo Fisher Scientific SelectScreen (plus Nanosyn / Reaction Biology for CDK/cyclin lines)
Summary of the method: (§1)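 Both platform types ran at predefined settings. Inhibitor was applied first at 100 nmol/L (1% DMSO), later in ten-point titrations spanning 1 µmol/L to 0.0495 nmol/L.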

ALK R1275Q = biological target: T2, ALK R1275Q (Homo sapiens, UniProt Q9UM73, R1275Q)
T2 construct: purchased Thermo Fisher Scientific SelectScreen (plus Nanosyn / Reaction Biology for CDK/cyclin lines)
Summary of the method: as §1

AMPK (A1/B1/G2) = biological target: T3, AMPK (A1/B1/G2) (Homo sapiens, UniProt Q13131)
T3 construct: purchased Thermo Fisher Scientific SelectScreen (plus Nanosyn / Reaction Biology for CDK/cyclin lines)
Summary of the method: as §1

AMPK (A1/B2/G1) = biological target: T4, AMPK (A1/B2/G1) (Homo sapiens, UniProt Q13131)
T4 construct: purchased Thermo Fisher Scientific SelectScreen (plus Nanosyn / Reaction Biology for CDK/cyclin lines)
Summary of the method: as §1

AMPK (A2/B2/G1) = biological target: T5, AMPK (A2/B2/G1) (Homo sapiens, UniProt P54646)
T5 construct: purchased Thermo Fisher Scientific SelectScreen (plus Nanosyn / Reaction Biology for CDK/cyclin lines)
Summary of the method: as §1

AMPK (A2/B2/G2) = biological target: T6, AMPK (A2/B2/G2) (Homo sapiens, UniProt P54646)
T6 construct: purchased Thermo Fisher Scientific SelectScreen (plus Nanosyn / Reaction Biology for CDK/cyclin lines)
Summary of the method: as §1

ANKK1 = biological target: T7, ANKK1 (Homo sapiens, UniProt Q8NFD2)
T7 construct: purchased Thermo Fisher Scientific SelectScreen (plus Nanosyn / Reaction Biology for CDK/cyclin lines)
Summary of the method: as §1

CAMKK2 (CaMKK beta) = biological target: T8, CAMKK2 (CaMKK beta) (Homo sapiens, UniProt Q96RR4)
T8 construct: purchased Thermo Fisher Scientific SelectScreen (plus Nanosyn / Reaction Biology for CDK/cyclin lines)
Summary of the method: as §1

CDK3/cyclin E1 = biological target: T9, CDK3/cyclin E1 (Homo sapiens, UniProt Q00526)
T9 construct: purchased BPS 40103
Summary of the method: as §1

CDK9/cyclin K = biological target: T10, CDK9/cyclin K (Homo sapiens, UniProt P50750)
T10 construct: purchased Thermo Fisher Scientific SelectScreen (plus Nanosyn / Reaction Biology for CDK/cyclin lines)
Summary of the method: as §1

CLK4 = biological target: T11, CLK4 (Homo sapiens, UniProt Q9HAZ1)
T11 construct: purchased Thermo Fisher Scientific SelectScreen (plus Nanosyn / Reaction Biology for CDK/cyclin lines)
Summary of the method: as §1

EIF2AK2 (PKR) = biological target: T12, EIF2AK2 (PKR) (Homo sapiens, UniProt P19525)
T12 construct: purchased Thermo Fisher Scientific SelectScreen (plus Nanosyn / Reaction Biology for CDK/cyclin lines)
T12 sequence (P19525 whole entry): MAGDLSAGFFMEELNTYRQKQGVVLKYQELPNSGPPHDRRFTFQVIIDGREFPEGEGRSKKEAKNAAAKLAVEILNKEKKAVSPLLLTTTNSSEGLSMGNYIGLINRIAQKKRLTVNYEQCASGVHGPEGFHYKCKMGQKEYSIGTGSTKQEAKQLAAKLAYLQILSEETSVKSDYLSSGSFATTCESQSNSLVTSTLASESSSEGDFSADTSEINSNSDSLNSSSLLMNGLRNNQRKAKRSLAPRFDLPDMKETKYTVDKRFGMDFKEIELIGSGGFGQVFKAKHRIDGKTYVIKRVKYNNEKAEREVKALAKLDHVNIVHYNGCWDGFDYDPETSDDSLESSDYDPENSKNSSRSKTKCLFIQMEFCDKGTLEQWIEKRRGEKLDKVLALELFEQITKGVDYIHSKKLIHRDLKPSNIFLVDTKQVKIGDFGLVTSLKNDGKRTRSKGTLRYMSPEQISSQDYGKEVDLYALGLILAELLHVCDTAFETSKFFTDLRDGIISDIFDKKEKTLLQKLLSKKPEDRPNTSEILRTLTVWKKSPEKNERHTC
Summary of the method: as §1

ERN1 = biological target: T13, ERN1 (Homo sapiens, UniProt O75460)
T13 construct: purchased Thermo Fisher Scientific SelectScreen (plus Nanosyn / Reaction Biology for CDK/cyclin lines)
Summary of the method: as §1

FGFR3 K650M = biological target: T14, FGFR3 K650M (Homo sapiens, UniProt P22607, K650M)
T14 construct: purchased Thermo Fisher Scientific SelectScreen (plus Nanosyn / Reaction Biology for CDK/cyclin lines)
Summary of the method: as §1

FLT3 ITD = system: FLT3 ITD
Summary of the method: as §1

FYN A = biological target: T15, FYN A (Homo sapiens, UniProt P06241)
T15 construct: purchased Thermo Fisher Scientific SelectScreen (plus Nanosyn / Reaction Biology for CDK/cyclin lines)
Summary of the method: as §1

ICK = biological target: T16, ICK (Homo sapiens, UniProt Q9UPZ9)
T16 construct: purchased Thermo Fisher Scientific SelectScreen (plus Nanosyn / Reaction Biology for CDK/cyclin lines)
Summary of the method: as §1

IRAK3 = biological target: T17, IRAK3 (Homo sapiens, UniProt Q9Y616)
T17 construct: purchased Thermo Fisher Scientific SelectScreen (plus Nanosyn / Reaction Biology for CDK/cyclin lines)
Summary of the method: as §1

KIT D816V = biological target: T18, KIT D816V (Homo sapiens, UniProt P10721, D816V)
T18 construct: purchased Thermo Fisher Scientific SelectScreen (plus Nanosyn / Reaction Biology for CDK/cyclin lines)
T18 sequence (P10721 26-976 D816V): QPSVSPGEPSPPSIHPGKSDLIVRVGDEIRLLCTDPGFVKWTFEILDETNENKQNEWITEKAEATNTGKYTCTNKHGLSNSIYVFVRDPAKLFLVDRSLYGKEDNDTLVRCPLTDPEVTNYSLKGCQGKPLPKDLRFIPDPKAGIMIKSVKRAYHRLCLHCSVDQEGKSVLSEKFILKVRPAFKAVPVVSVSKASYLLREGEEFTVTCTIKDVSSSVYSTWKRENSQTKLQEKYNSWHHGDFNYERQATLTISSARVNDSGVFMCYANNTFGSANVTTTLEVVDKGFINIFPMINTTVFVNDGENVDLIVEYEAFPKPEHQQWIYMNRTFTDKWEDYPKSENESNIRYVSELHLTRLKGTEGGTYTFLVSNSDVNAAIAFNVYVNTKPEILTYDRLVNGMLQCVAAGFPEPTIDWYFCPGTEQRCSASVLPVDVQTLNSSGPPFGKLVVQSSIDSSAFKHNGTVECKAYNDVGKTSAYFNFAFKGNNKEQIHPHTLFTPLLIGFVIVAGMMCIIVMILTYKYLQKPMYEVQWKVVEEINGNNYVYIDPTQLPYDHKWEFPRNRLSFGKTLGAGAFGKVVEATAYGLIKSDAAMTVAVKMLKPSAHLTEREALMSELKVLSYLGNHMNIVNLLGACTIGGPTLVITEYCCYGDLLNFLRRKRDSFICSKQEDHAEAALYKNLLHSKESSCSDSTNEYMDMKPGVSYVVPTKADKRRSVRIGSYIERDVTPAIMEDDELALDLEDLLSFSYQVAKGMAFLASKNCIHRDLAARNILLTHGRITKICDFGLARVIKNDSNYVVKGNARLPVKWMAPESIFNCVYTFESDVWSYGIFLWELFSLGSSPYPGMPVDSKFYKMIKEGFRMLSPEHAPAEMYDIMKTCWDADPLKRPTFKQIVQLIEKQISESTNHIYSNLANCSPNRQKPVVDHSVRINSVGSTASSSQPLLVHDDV
Summary of the method: as §1

KIT V559D T670I = biological target: T19, KIT V559D T670I (Homo sapiens, UniProt P10721, T670I/V559D)
T19 construct: purchased Thermo Fisher Scientific SelectScreen (plus Nanosyn / Reaction Biology for CDK/cyclin lines)
T19 sequence (P10721 26-976 V559D/T670I): as the sequence (P10721 26-976 D816V) above, with V534D, T645I, V791D counted along it
Summary of the method: as §1

LIMK2 = biological target: T20, LIMK2 (Homo sapiens, UniProt P53671)
T20 construct: purchased Thermo Fisher Scientific SelectScreen (plus Nanosyn / Reaction Biology for CDK/cyclin lines)
Summary of the method: as §1

[1] = biological target: T21, MAP2K6 (MKK6) S207E T211E (Homo sapiens, UniProt P52564, S207E/T211E)
T21 construct: purchased Thermo Fisher Scientific SelectScreen (plus Nanosyn / Reaction Biology for CDK/cyclin lines)
T21 sequence (P52564 whole entry S207E/T211E): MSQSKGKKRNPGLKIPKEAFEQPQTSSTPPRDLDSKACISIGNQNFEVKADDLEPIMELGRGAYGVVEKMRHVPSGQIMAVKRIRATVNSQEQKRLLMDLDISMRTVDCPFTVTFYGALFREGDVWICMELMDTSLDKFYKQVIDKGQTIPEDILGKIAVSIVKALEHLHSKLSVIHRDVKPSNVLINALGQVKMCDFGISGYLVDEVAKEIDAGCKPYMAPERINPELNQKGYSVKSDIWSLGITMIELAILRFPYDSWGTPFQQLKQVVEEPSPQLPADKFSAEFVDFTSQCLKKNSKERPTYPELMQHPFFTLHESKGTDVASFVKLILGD
Summary of the method: as §1

MAP4K3 (GLK) = biological target: T22, MAP4K3 (GLK) (Homo sapiens, UniProt Q8IVH8)
T22 construct: purchased Thermo Fisher Scientific SelectScreen (plus Nanosyn / Reaction Biology for CDK/cyclin lines)
Summary of the method: as §1

MAPK10 (JNK3) = biological target: T23, MAPK10 (JNK3) (Homo sapiens, UniProt P53779)
T23 construct: purchased Thermo Fisher Scientific SelectScreen (plus Nanosyn / Reaction Biology for CDK/cyclin lines)
Summary of the method: as §1

MAPK15 (ERK7) = biological target: T24, MAPK15 (ERK7) (Homo sapiens, UniProt Q8TD08)
T24 construct: purchased Thermo Fisher Scientific SelectScreen (plus Nanosyn / Reaction Biology for CDK/cyclin lines)
Summary of the method: as §1

MASTL = biological target: T25, MASTL (Homo sapiens, UniProt Q96GX5)
T25 construct: purchased Thermo Fisher Scientific SelectScreen (plus Nanosyn / Reaction Biology for CDK/cyclin lines)
Summary of the method: as §1

PKMYT1 = biological target: T26, PKMYT1 (Homo sapiens, UniProt Q99640)
T26 construct: purchased Thermo Fisher Scientific SelectScreen (plus Nanosyn / Reaction Biology for CDK/cyclin lines)
Summary of the method: as §1

SIK1 = biological target: T27, SIK1 (Homo sapiens, UniProt P57059)
T27 construct: purchased Thermo Fisher Scientific SelectScreen (plus Nanosyn / Reaction Biology for CDK/cyclin lines)
Summary of the method: as §1

SIK3 = biological target: T28, SIK3 (Homo sapiens, UniProt Q9Y2K2)
T28 construct: purchased Thermo Fisher Scientific SelectScreen (plus Nanosyn / Reaction Biology for CDK/cyclin lines)
T28 sequence (Q9Y2K2 whole entry): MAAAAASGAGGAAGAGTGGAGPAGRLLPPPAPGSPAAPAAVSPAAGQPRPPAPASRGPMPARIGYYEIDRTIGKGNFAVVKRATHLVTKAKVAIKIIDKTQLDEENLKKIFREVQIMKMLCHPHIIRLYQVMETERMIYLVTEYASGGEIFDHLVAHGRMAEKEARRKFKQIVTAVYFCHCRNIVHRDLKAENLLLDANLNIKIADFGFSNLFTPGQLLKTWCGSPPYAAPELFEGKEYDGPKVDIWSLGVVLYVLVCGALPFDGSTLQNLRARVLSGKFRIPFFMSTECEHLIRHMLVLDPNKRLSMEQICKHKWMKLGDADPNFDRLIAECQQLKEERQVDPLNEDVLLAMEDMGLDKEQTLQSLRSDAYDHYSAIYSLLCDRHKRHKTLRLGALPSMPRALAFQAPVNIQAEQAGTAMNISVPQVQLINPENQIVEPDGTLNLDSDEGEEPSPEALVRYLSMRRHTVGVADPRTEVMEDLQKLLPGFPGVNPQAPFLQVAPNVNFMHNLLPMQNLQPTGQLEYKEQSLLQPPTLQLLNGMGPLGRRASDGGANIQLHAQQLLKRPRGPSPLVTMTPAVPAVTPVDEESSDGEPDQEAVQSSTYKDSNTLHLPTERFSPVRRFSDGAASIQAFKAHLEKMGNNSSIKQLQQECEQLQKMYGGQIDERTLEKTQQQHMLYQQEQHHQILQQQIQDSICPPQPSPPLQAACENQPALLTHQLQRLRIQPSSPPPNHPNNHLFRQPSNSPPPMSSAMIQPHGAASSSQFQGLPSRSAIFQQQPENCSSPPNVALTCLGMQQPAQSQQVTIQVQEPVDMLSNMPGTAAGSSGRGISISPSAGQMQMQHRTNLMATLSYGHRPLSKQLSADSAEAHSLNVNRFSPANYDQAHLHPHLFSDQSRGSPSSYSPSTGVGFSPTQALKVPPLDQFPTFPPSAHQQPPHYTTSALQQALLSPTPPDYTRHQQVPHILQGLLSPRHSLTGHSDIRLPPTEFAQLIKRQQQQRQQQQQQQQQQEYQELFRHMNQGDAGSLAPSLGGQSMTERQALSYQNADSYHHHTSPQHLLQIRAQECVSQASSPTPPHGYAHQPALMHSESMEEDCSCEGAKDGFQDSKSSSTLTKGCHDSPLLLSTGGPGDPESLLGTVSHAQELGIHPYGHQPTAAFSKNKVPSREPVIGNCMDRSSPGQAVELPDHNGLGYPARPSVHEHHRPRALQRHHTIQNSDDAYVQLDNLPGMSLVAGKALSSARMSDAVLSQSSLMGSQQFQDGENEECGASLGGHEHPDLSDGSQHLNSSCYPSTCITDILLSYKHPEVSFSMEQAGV
Summary of the method: as §1

STK33 = biological target: T29, STK33 (Homo sapiens, UniProt Q9BYT3)
T29 construct: purchased Thermo Fisher Scientific SelectScreen (plus Nanosyn / Reaction Biology for CDK/cyclin lines)
Summary of the method: as §1

STK38 (NDR) = biological target: T30, STK38 (NDR) (Homo sapiens, UniProt Q15208)
T30 construct: purchased Thermo Fisher Scientific SelectScreen (plus Nanosyn / Reaction Biology for CDK/cyclin lines)
Summary of the method: as §1

STK39 (STLK3) = biological target: T31, STK39 (STLK3) (Homo sapiens, UniProt Q9UEW8)
T31 construct: purchased Thermo Fisher Scientific SelectScreen (plus Nanosyn / Reaction Biology for CDK/cyclin lines)
Summary of the method: as §1

TAOK1 = biological target: T32, TAOK1 (Homo sapiens, UniProt Q7L7X3)
T32 construct: purchased Thermo Fisher Scientific SelectScreen (plus Nanosyn / Reaction Biology for CDK/cyclin lines)
Summary of the method: as §1

TAOK3 (JIK) = biological target: T33, TAOK3 (JIK) (Homo sapiens, UniProt Q9H2K8)
T33 construct: purchased Thermo Fisher Scientific SelectScreen (plus Nanosyn / Reaction Biology for CDK/cyclin lines)
T33 sequence (Q9H2K8 whole entry): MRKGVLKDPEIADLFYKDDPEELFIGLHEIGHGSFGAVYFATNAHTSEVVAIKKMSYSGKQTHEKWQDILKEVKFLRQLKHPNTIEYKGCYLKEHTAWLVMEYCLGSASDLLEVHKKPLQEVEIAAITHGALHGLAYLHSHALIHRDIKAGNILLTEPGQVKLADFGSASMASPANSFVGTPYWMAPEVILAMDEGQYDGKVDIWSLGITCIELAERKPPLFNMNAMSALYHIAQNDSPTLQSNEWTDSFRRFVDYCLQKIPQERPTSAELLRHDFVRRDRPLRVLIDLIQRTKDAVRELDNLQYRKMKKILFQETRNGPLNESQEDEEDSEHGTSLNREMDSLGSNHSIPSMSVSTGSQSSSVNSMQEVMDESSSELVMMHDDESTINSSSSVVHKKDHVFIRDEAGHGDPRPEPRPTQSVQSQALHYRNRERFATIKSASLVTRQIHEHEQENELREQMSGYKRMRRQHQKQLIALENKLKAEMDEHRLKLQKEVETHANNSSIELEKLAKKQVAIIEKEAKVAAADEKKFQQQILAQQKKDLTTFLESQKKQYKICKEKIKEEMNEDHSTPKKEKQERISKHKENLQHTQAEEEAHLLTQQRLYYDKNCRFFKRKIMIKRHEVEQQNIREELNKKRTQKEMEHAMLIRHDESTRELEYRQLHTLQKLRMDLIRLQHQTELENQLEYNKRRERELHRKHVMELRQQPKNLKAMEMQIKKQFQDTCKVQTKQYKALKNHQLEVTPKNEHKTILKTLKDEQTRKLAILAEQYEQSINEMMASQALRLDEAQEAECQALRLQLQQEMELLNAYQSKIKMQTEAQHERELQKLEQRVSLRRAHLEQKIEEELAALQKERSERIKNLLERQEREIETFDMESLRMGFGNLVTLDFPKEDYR
Summary of the method: as §1

TEC = biological target: T34, TEC (Homo sapiens, UniProt P42680)
T34 construct: purchased Thermo Fisher Scientific SelectScreen (plus Nanosyn / Reaction Biology for CDK/cyclin lines)
T34 sequence (P42680 whole entry): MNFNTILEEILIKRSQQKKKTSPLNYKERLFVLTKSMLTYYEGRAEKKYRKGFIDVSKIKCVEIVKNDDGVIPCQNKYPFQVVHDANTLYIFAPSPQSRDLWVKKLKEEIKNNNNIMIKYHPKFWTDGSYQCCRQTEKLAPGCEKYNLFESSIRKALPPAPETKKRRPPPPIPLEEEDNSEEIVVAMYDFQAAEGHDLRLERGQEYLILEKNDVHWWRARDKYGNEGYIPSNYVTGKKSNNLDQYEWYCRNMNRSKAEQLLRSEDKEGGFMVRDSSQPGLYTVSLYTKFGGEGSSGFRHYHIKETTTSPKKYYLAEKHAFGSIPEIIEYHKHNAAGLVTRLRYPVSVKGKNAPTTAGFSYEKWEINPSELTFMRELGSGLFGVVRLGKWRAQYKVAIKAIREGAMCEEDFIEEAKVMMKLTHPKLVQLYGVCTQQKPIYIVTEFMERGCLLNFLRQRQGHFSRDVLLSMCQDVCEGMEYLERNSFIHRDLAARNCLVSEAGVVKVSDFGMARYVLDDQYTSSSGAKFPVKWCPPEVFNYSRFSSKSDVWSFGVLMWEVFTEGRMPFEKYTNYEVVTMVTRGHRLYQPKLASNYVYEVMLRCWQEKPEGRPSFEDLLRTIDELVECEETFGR
Summary of the method: as §1

TESK2 = biological target: T35, TESK2 (Homo sapiens, UniProt Q96S53)
T35 construct: purchased Thermo Fisher Scientific SelectScreen (plus Nanosyn / Reaction Biology for CDK/cyclin lines)
Summary of the method: as §1

TLK2 = biological target: T36, TLK2 (Homo sapiens, UniProt Q86UE8)
T36 construct: purchased Thermo Fisher Scientific SelectScreen (plus Nanosyn / Reaction Biology for CDK/cyclin lines)
Summary of the method: as §1

ULK2 = biological target: T37, ULK2 (Homo sapiens, UniProt Q8IYT8)
T37 construct: purchased Thermo Fisher Scientific SelectScreen (plus Nanosyn / Reaction Biology for CDK/cyclin lines)
Summary of the method: as §1

Structure (SMILES): NS(=O)(=O)c1ccc(Nc2ncc3cc4n(c3n2)C2(CCCCC2)C(=O)NN4)cc1 [INX-315]
- inhibition at 0.1 µM (ABL1 M351T): 13%
- inhibition at 0.1 µM (ALK R1275Q): 10%
- inhibition at 0.1 µM (AMPK (A1/B1/G2)): 15%
- inhibition at 0.1 µM (AMPK (A1/B2/G1)): 36%
- inhibition at 0.1 µM (AMPK (A2/B2/G1)): 9%
- inhibition at 0.1 µM (AMPK (A2/B2/G2)): 11%
- inhibition at 0.1 µM (ANKK1): 2%
- inhibition at 0.1 µM (CAMKK2 (CaMKK beta)): 3%
- inhibition at 0.1 µM (CDK3/cyclin E1): 88%
- inhibition at 0.1 µM (CDK9/cyclin K): 38%
- inhibition at 0.1 µM (CLK4): -2%
- inhibition at 0.1 µM (EIF2AK2 (PKR)): -8%
- inhibition at 0.1 µM (ERN1): 11%
- inhibition at 0.1 µM (FGFR3 K650M): 14%
- % Inhibition Avg (FLT3 ITD): 36%
- inhibition at 0.1 µM (FYN A): 7%
- inhibition at 0.1 µM (ICK): 28%
- inhibition at 0.1 µM (IRAK3): 45%
- inhibition at 0.1 µM (KIT D816V): 34%
- inhibition at 0.1 µM (KIT V559D T670I): 16%
- inhibition at 0.1 µM (LIMK2): 22%
- inhibition at 0.1 µM [1]: 7%
- inhibition at 0.1 µM (MAP4K3 (GLK)): 8%
- inhibition at 0.1 µM (MAPK10 (JNK3)): 12%
- inhibition at 0.1 µM (MAPK15 (ERK7)): 87%
- inhibition at 0.1 µM (MASTL): 0%
- inhibition at 0.1 µM (PKMYT1): -2%
- inhibition at 0.1 µM (SIK1): 4%
- inhibition at 0.1 µM (SIK3): 2%
- inhibition at 0.1 µM (STK33): 5%
- inhibition at 0.1 µM (STK38 (NDR)): 0%
- inhibition at 0.1 µM (STK39 (STLK3)): 14%
- inhibition at 0.1 µM (TAOK1): 22%
- inhibition at 0.1 µM (TAOK3 (JIK)): 4%
- inhibition at 0.1 µM (TEC): 4%
- inhibition at 0.1 µM (TESK2): -1%
- inhibition at 0.1 µM (TLK2): 13%
- inhibition at 0.1 µM (ULK2): 3%
